The source of these data is patent publication US11535584B2, “Homovanillinic acid ester, in particular for creating a warm and/or pungent sensation” (SYMRISE AG, priority 2014, dated 2022).

Data set [1] can be described thus: Warming effect compared to vanillyl butyl ether (Example 11). It is filed as in vivo. The conditions noted are these: 4-10 ppm in 5% sugar solution vs 10 ppm vanillyl butyl ether. From the text: Test solutions with 4-10 ppm ester of homovanillic acid were sensorially evaluated in a 5% sugar solution and were compared to a test solution of 10 ppm vanillyl butyl ether.

For data set [2], the system named is tasters. In words: Tasting of esters of homovanillinic acid: pungency score and profile (Example 5). It is filed as in vivo. The following applies: 25 ppm in 5% sugar solution; for Pungency assessed: scale of 1 (very weak)-9 (very strong), 4 tasters. Here is the method: The substance to be tasted was dissolved in ethanol and the ethanolic solution was then diluted with 5% sugar solution (final concentration: 25 ppm). For the tasting, the oral cavity was rinsed and spat out by 4 tasters with approx. 5 ml of the sugar solution.

In data set [3] the test system is rat eyes. The following applies: Szolcsanyi, Jancso-Gabor 1975; cited from earlier work.
The subject of data set [4] is tasters. Briefly: Tasting of esters of homovanillinic acid: pungency score and profile (Example 5). It is filed as in vivo. The following applies: for Pungency assessed: scale of 1 (very weak)-9 (very strong).
Data set [5] concerns testers. In words: Sensorial assessment of combinations with grains of paradise extract, nonivamide and capsicum extract (Example 9). It is filed as in vivo. The conditions noted are these: for Effect in combination of nonivamide, capsicum extract and ester: versus combinations without esters (examples 26* and 28*).
Data set [6] concerns trained panelists. Briefly: Time vs. intensity pungency profile compared with nonivamide (Example 8). The format is in vivo. The conditions noted are these: 25 ppm vs 0.5 ppm nonivamide in 5% sugar solution. Here is the method:
To obtain a time vs. intensity profile, trained panelists (n=8-10) rinsed their oral cavity with a gulp of a sample solution (5 ml of a 5% sugar solution). Then, the intensity of the characteristic pungency was assessed at defined time intervals on the basis of a scale without fixed graduation.

Data set [7] concerns tasters. Briefly: Isointensity of esters compared to nonivamide and a capsicum extract (Example 6). It is filed as in vivo. The conditions noted are these: 10 ppm of the ester in 5% sugar solution. As to the method:
The substance to be tasted was dissolved in ethanol and the ethanolic solution was then diluted with 5% sugar solution (final concentration: 10 ppm). As reference, capsicum extract with 1,000,000 SHU (0.3-10 ppm) and nonivamide (0.1-1 ppm) were prepared in 5% sugar solution in increasing concentration. For the tasting, the oral cavity was rinsed and spat out by 4 tasters with approx. 5 ml of the solution to be tasted and assessed against the reference series.

For data set [8] the following is noted: EFSA / Scientific Committee on Food opinion 2002; cited from earlier work.
Data set [9] in a line: Tasting and sensorial assessment of isolated ethyl homovanillate (17) (Example 2). The format is in vivo. As to the method:
The primary reaction mixture is pre-fractionated using medium-pressure liquid chromatography (MPLC) (column material: Lewatit VP OC 1064; water/ethanol 3/1; v/v). Subsequently, further separation is carried out via preparative high-pressure liquid chromatography (pHPLC) (column: Phenomenex Luna C18 5μ 150×21.2 mm, flow rate 30 ml/min, detection 210 nm) in the isocratic mode (63% H2O, 37% MeOH). Final isolation of ethyl homovanillate (17) is carried out via semi-preparative high-pressure liquid chromatography (sPHPLC) in the gradient mode (column: YMC Triart C18 5μ 250×10 mm; A: H2O; B: MeOH; 0 min 65% A, 35% B; 25 min 40% A, 60% B; 30 min 100% B; flow rate 3 ml/min; detection: 250 nm). The obtained ethyl homovanillate (17) was subsequently freeze-dried and tasted and sensorially assessed at a dosage of 100 ppm in 5% sugar solution, 0.5% salt solution, 500 ppm caffeine solution and water.

The test system of data set [10] is testers. In words: Increase in the alcohol pungency of an ethanolic solution (Example 10). It is filed as in vivo. Here is the method:
On the basis of a 5% sugar solution with 20% ethanol (example 1), different concentrations (10-100 ppm) of ethyl-2-(4-hydroxy-3-methoxyphenyl) acetate (17), polymethoxylated flavone PMF 60 (Miritz) and combinations (10-50 ppm) of ethyl-2-(4-hydroxy-3-methoxyphenyl) acetate (17) with polymethoxylated flavone PMF 60 (Miritz) (20 ppm) were compared with a second base solution (5% sugar solution with 40% ethanol) (Tab. 4). To this end, 5 testers rinsed their mouth with about 5 ml of the relevant solution to be tasted, spat out the solution and assessed the taste sensation.

[11] abbreviates: 50 and 100 ppm (examples 17 and 18).

Molecules are shown by their SMILES. Read-outs that look alike come from different tables or passages of the source.

Turning to `CCCOC(=O)Cc1ccc(O)c(OC)c1` [compound 18, Propyl-2-(4-hydroxy-3-methoxyphenyl) acetate], in data set [1], the “Warming effect compared to vanillyl butyl ether” value was “long-lasting warming effect, but which occurred at a comparatively later time”. Also, in [2], the Profile entry is “weak and delayed pungency, gradually warming, tingling”; the Pungency assessed is given as 4-5. Moreover, in data set [3], the “Pain sensation in rat eyes” value is “active”.

With `COc1cc(CC(=O)OC/C=C/c2ccccc2)ccc1O` [compound 2, [(E)-Cinnamyl]-2-(4-hydroxy-3-methoxyphenyl) acetate], in data set [4], the Profile entry was “delayed effect, very pungent, slightly warming, somewhat mouthwatering” and the Pungency assessed is listed as 5-6.

As for `CCCCOC(=O)Cc1ccc(O)c(OC)c1` [compound 19, Butyl-2-(4-hydroxy-3-methoxyphenyl) acetate], the “Intensification in combination with capsicum extract versus additive effect” value in data set [5] (10 and 25 ppm with 2 or 5 ppm capsicum extract) is on record as “the intensifications were more significant than just an additive effect”. Also, in data set [5] (10 and 25 ppm with 2 or 5 ppm capsicum extract (examples 19, 20, 24, 25)), the “Effects in combination with capsicum extract” value was “the same effects were detected even at lower concentrations”. In data set [5], the “Effect in combination of nonivamide, capsicum extract and ester” value is on record as “quicker decline in the pungency sensation as well as a warming effect”. Also, the “Warming effect compared to vanillyl butyl ether” value in data set [1] is listed as “more marked warming effect”. In addition, in data set [6], the “Decrease in pungency compared with nonivamide” value is listed as “considerably faster decrease in pungency”. In addition, the “Onset of the pungency compared with nonivamide” value in data set [6] (identical total intensity) is “faster onset of the pungency”. Moreover, in data set [7], the “Concentration of capsicum extract with 1,000,000 SHU of comparable pungency” value was about 4.5 ppm and the “Nonivamide concentration of comparable pungency” value is given as about 0.3 ppm. In addition, in data set [2], the Profile result is on record as “immediate pungency, quick decrease” and the Pungency assessed is 7.

Take `CCCCCCOC(=O)Cc1ccc(O)c(OC)c1` [compound 21, Hexyl-2-(4-hydroxy-3-methoxyphenyl) acetate]: in data set [7], the “Concentration of capsicum extract with 1,000,000 SHU of comparable pungency” value is recorded as about 8.5 ppm and the “Nonivamide concentration of comparable pungency” value is about 0.5 ppm. In addition, in data set [2], the Profile result is “clearly pungent, slightly delayed effect, warming, relatively fast decrease in pungency” and the Pungency assessed was determined as 9.

In the case of `CCCCCCCCCCOC(=O)Cc1ccc(O)c(OC)c1` [decyl-2-(4-hydroxy-3-methoxyphenyl) acetate, reference compound], in data set [2], the Profile entry was “weakly pungent, delayed, pear-like and greasy-pulpy secondary effect, throat burns more than the tongue”; the Pungency assessed amounted to 2.

For the compound `COc1cc(CNC(=O)CCCC/C=C/C(C)C)ccc1O` [capsaicin, N-(4-hydroxy-3-methoxybenzyl)-8-methyl-(6E)-nonenoic acid amide], the “Evaluation of the genotoxic potential” value in [8] was “negative result”.

`COc1cc(CC(=O)OC(C)C)ccc1O` [compound 7, Isopropyl-2-(4-hydroxy-3-methoxyphenyl) acetate]: in data set [2], the Profile entry is “Late onset, tingling, warming, pungent, somewhat delayed, not long-lasting, pleasant” and the Pungency assessed is listed as 3.

`CCOC(=O)Cc1ccc(O)c(OC)c1` [compound 17, Ethyl-2-(4-hydroxy-3-methoxyphenyl) acetate]: in data set [5] (2 and 5 ppm capsicum extract with 1,000,000 SHU), the “Additional effect in combination with capsicum extract at all concentrations” value is given as “pleasantly warming effect, which remained even after the pungency sensation receded”. Moreover, the “Effect on pungency in combination with grains of paradise extract” value in data set [5] (10 and 25 ppm with 30 ppm grains of paradise extract, 5% sugar solution (examples 2 and 3)) is given as “faster onset of the pungency”. The “Assessment of the pungency sensation in combination with 2 ppm capsicum extract” value in data set [5] (setting [11]) was “pleasant and not long-lasting”. Also, in data set [5] (setting [11]), the “Effect on pungency in combination with 2 ppm capsicum extract with 1,000,000 SHU” value was “same intensifying and faster onsetting effect”. In addition, in data set [5] (50 and 100 ppm (examples 22 and 23)), the “Effect on pungency in combination with 5 ppm capsicum extract with 1,000,000 SHU” value is recorded as “quick decline in the pungency”. Moreover, in [5] (50 and 100 ppm with 0.2 or 0.5 ppm nonivamide), the “Onset of pungency in combination with nonivamide” value is “faster onset of the pungency”. Moreover, in data set [5] (50 and 100 ppm with 0.2 or 0.5 ppm nonivamide (examples 7, 8, 12, 13)), the “Intensification of pungency in combination with nonivamide” value was “the pungency of nonivamide was intensified at both of the tested concentrations, wherein this intensification corresponded to more than just the additive effect”. For the same compound, the “Intensification of the pungency, 2 ppm versus 5 ppm capsicum extract” value in data set [5] (combination with capsicum extract with 1,000,000 SHU) is given as “significantly higher with 2 ppm capsicum extract with 1,000,000 SHU than with 5 ppm”. In addition, the “Effect in combination of nonivamide, capsicum extract and ester” value in data set [5] was “quicker decline in the pungency sensation as well as a warming effect”. Moreover, in data set [1], the “Warming effect compared to vanillyl butyl ether” value is reported as “milder warming effect”. Further, the Taste description entry in [9] (100 ppm in 0.5% salt solution) is recorded as “Pungent”; in [9] (100 ppm in 5% sugar solution), “Pungent, warming”; in data set [9] (100 ppm in water) it was “Pungent, stinging, slightly warming”. Further, the Profile entry in data set [2] is given as “slightly warming, somewhat pungent”. Besides, in data set [2], the Pungency assessed is recorded as 1-2. Further, the “Effect of combination with polymethoxylated flavone PMF 60” value in data set [10] (10-50 ppm with 20 ppm PMF 60 in 5% sugar solution with 20% ethanol (examples 7-9)) was “an increase of the burning sensation was additionally generated, and an extension of these effects was also achieved”. Moreover, the “Effect on taste sensation of base solution” value in [10] (10 ppm in 5% sugar solution with 20% ethanol (example 2)) was “an increase and an extension of the burning sensation in the mouth”; in data set [10] (20 ppm and 50 ppm in 5% sugar solution with 20% ethanol), “additional pungency effect”. For the same compound, in data set [10] (compared to 5% sugar solution with 40% ethanol), the “Nasal effect of combination with PMF 60” value is reported as “did not show any nasal effect”. Besides, the “Sensorially preferred concentration in combination with PMF 60” value in data set [10] (with 20 ppm PMF 60 in 5% sugar solution with 20% ethanol) is on record as 20-50 ppm.

Take `COc1cc(CC(=O)OCC(C)C)ccc1O` [compound 9, Isobutyl-2-(4-hydroxy-3-methoxyphenyl) acetate]: the “Warming effect compared to vanillyl butyl ether” value in [1] was “warming effect similar to vanillyl butyl ether, but which lasted for a longer period”. Further, in data set [2], the Profile result is recorded as “quick onset of pungency, warming, slightly biting pungency” and the Pungency assessed was 4-5.

`COc1cc(CC(=O)OCCCc2ccccc2)ccc1O` [compound 22, 3-Phenylpropyl-2-(4-hydroxy-3-methoxyphenyl) acetate]: in data set [4] (2 ppm in 5% sugar solution), the Profile result was “delayed effect, pungent, warming, slightly tingling” and the Pungency assessed came out at 5.

Turning to `COC(=O)Cc1ccc(O)c(OC)c1` [methyl ester of homovanillic acid], the “Pain sensation in rat eyes” value in data set [3] is “active”.

For `COc1cc(CC(=O)OCCCCc2ccccc2)ccc1O` [compound 23, 4-Phenylbutyl-2-(4-hydroxy-3-methoxyphenyl) acetate], in data set [4] (2.5 ppm in 5% sugar solution), the Profile entry was “delayed effect, pungent, delayed warming, burning, slightly tingling” and the Pungency assessed was 4-5.

On to `CCCCCCCCOC(=O)Cc1ccc(O)c(OC)c1` [octyl-2-(4-hydroxy-3-methoxy-phenyl) acetate, reference compound], for which, in data set [2], the Profile entry is “slow onset of pungency, late, delayed, greasy-pulpy secondary effect, burning” and the Pungency assessed worked out at 7. In addition, in data set [3], the “Pain sensation in rat eyes” value is “active”.

Consider `CCC(C)OC(=O)Cc1ccc(O)c(OC)c1` (stereo not drawn) [compound 8, sec-Butyl-2-(4-hydroxy-3-methoxyphenyl) acetate], for which, in data set [2], the Profile result is “very delayed onset, tingling, mainly warming, gradually increasing pungency” and the Pungency assessed came to 3.

Take `CCCCCCCOC(=O)Cc1ccc(O)c(OC)c1` [compound 14, Heptyl-2-(4-hydroxy-3-methoxyphenyl) acetate]: in data set [4], the Profile entry is reported as “slightly delayed effect, burning, pungent, warming” and the Pungency assessed was determined as 3.
